Assay results as given in patent US20120148685A1, “METHODS AND COMPOSITIONS FOR TREATING INSULIN RESISTANCE, DIABETES MELLITUS TYPE 2, METABOLIC SYNDROME AND RELATED DISORDERS” (Engergy4Life AG, priority 2009, published 2012).
Marks after values point to notes of the source that are not given here.

How the values were obtained:
[1] = Feed intake, body weight development and feed conversion ratio of Zucker rats fed supplemented diets; type: in vivo
Source text: Zucker rats are an established model of human early-onset, hyperplastic-hypertrophic obesity and insulin resistance as well as human non-insulin dependent diabetes mellitus.
(§1) A total of 60 male, 8-10 week old, obese (fa/fa) Zucker rats (Crl:ZUC-Leprfa; Charles River, France) with an initial body weight of 358±24 (mean±SD) g were randomly assigned to five groups of twelve rats each. In addition, 12 male, 8-10 week old, heterozygous lean (fa/+) Zucker rats with an initial body weight of 271±10 g were used as a lean control group. All rats were kept individually in Macrolon cages in a room maintained at 22±1° C. and 50-60% relative humidity with lighting from 06.00 to 18.00 hours. All experimental procedures described followed established guidelines for the care and handling of laboratory animals and were approved by the local Animal Care and Use Committee.
(§2) The rats were fed semi-purified diets which were composed according to the recommendations of the American Institute of Nutrition (AIN)-93G. Five different diets were used differing in their supplementation. […] Diets were prepared by mixing the dry components and subsequent pelleting with a standard pelleting device (Kahl Laborpressanlage Typ 14-175; Reinbek, Germany). Feed was administered ad libitum, and feed intake was recorded weekly. Experimental diets were fed for 4 weeks. Water was available ad libitum from nipple drinkers during the whole experiment.

[2] = Organ weights of the rats; type: in vivo; details: obese (fa/fa) Zucker rats, supplemented diet fed 4 wk, means ± SD (n = 12)
Experimental: (§3) All rats were kept individually in Macrolon cages in a room maintained at 22±1° C. and 50-60% relative humidity with lighting from 06.00 to 18.00 hours. All experimental procedures described followed established guidelines for the care and handling of laboratory animals and were approved by the local Animal Care and Use Committee.
(§4) Five different diets were used differing in their supplementation. […] Feed was administered ad libitum, and feed intake was recorded weekly. Experimental diets were fed for 4 weeks. Water was available ad libitum from nipple drinkers during the whole experiment.

[3] = Plasma and lipoprotein lipid concentrations (triacylglycerol, cholesterol; enzymatic kits); type: in vivo, Zucker rats; details: for Cholesterol, HDL / Cholesterol, Plasma / Cholesterol, VLDL + LDL / Triacylglycerols, Plasma / Triacylglycerols, VLDL + LDL: obese (fa/fa) Zucker rats, supplemented diet 4 wk, fasted, means ± SD (n = 12)
Experimental: as §1, §2
(§5) The rats were decapitated under CO2 anesthesia in the fasted state. Whole blood was collected into EDTA polyethylene tubes (Sarstedt, Nürnbrecht, Germany). Plasma was separated from whole blood by centrifugation (1,100×g; 10 min) at 4° C. Lipoproteins [VLDL, LDL and high-density lipoproteins (HDL)] were separated by step-wise ultracentrifugation (900,000×g, 1.5 h, 4° C.; Mikro-Ultrazentrifuge, Sorvall Products, Bad Homburg, Germany). All samples were stored at −20° C. pending analysis.
Triacylglycerol and cholesterol concentrations in plasma and lipoproteins were determined using enzymatic reagent kits from Biocon (Vöhl-Marienhagen, Germany).

[4] = Fasting glucose concentration in plasma; type: in vivo, Zucker rats; details: for Glucose in plasma: obese (fa/fa) Zucker rats, supplemented diet 4 wk, fasted, means ± SD (n = 12)
Experimental: as §1, §2, §5
Glucose concentration in plasma was determined by an enzymatic reagent kit from Analyticon Biotechnologies (Lichtenfels, Germany).

[5] = Non-esterified fatty acids (NEFA) in plasma; type: in vivo, Zucker rats; details: for NEFA in plasma: obese (fa/fa) Zucker rats, supplemented diet 4 wk, fasted, means ± SD (n = 12)
Experimental: as §1, §2, §5
NEFA concentrations in plasma were determined using the NEFA kit from Wako Chemicals (Neuss, Germany).

[6] = system: leptin; assay: Leptin in plasma (rat ELISA); type: in vivo, Zucker rats; details: for Leptin in plasma: obese (fa/fa) Zucker rats, supplemented diet 4 wk, fasted, means ± SD (n = 12)
Experimental: as §1, §2, §5
(§6) Concentrations of leptin in plasma was determined by rat ELISA kits from BioVendor (Heidelberg, Germany). Concentration of high molecular weight adiponectin was determined by a rat ELISA kit from Shibayagi (Ishihara, Shibukawa, Gunma, Japan).

[7] = system: high molecular weight adiponectin; assay: High molecular weight adiponectin in plasma (rat ELISA); type: in vivo; details: obese (fa/fa) Zucker rats, supplemented diet 4 wk, fasted, means ± SD (n = 12)
Experimental: as §1, §2, §5, §6

[8] = system: sterol regulatory element-binding protein (SREBP)-1c; assay: Relative mRNA concentration in liver, lipogenesis: SREBP-1c; type: in vivo, Zucker rats; details: liver of obese Zucker rats, diet 4 wk, obese control = 1.00, means ± SD (n = 12)
Experimental: as §3, §4

[9] = system: fatty acid synthase (FAS); assay: Relative mRNA concentration in liver, lipogenesis: FAS; type: in vivo, Zucker rats; details: liver of obese Zucker rats, diet 4 wk, obese control = 1.00, means ± SD (n = 12)
Experimental: as §3, §4

[10] = system: stearoyl-CoA desaturase (SCD); assay: Relative mRNA concentration in liver, lipogenesis: SCD; type: in vivo; details: liver of obese Zucker rats, diet 4 wk, obese control = 1.00, means ± SD (n = 12)
Experimental: as §3, §4

[11] = system: fatty acid binding protein (FABP); assay: Relative mRNA concentration in liver, fatty acid uptake: FABP; type: in vivo, Zucker rats; details: liver of obese Zucker rats, diet 4 wk, obese control = 1.00, means ± SD (n = 12)
Experimental: as §3, §4

[12] = system: fatty acid transport protein (FATP); assay: Relative mRNA concentration in liver, fatty acid uptake: FATP; type: in vivo; details: liver of obese Zucker rats, diet 4 wk, obese control = 1.00, means ± SD (n = 12)
Experimental: as §3, §4

[13] = system: scavenger receptor CD36; assay: Relative mRNA concentration in liver, fatty acid uptake: CD36; type: in vivo; details: liver of obese Zucker rats, diet 4 wk, obese control = 1.00, means ± SD (n = 12)
Experimental: as §3, §4

[14] = system: lipoprotein lipase (LPL); assay: Relative mRNA concentration in liver, fatty acid uptake: LPL; type: in vivo; details: liver of obese Zucker rats, diet 4 wk, obese control = 1.00, means ± SD (n = 12)
Experimental: as §3, §4

[15] = system: acyl-CoA oxidase (ACO); assay: Relative mRNA concentration in liver, fatty acid oxidation: ACO; type: in vivo; details: liver of obese Zucker rats, diet 4 wk, obese control = 1.00, means ± SD (n = 12)
Experimental: as §3, §4

[16] = system: liver-type carnitine-palmitoyltransferase (L-CPT) I; assay: Relative mRNA concentration in liver, fatty acid oxidation: L-CPT I; type: in vivo; details: liver of obese Zucker rats, diet 4 wk, obese control = 1.00, means ± SD (n = 12)
Experimental: as §3, §4

[17] = obese (fa/fa) Zucker rats, supplemented diet fed 4 wk, means ± SD (n = 12)
[18] = within the obese rats, in words, P<0.05 where different
[19] = within the obese rats, in words, P<0.05

Row | Structure (SMILES) | Daily body weight gain [1, 17] | Feed intake [1, 17] | Final body weight [1, 17] | Total body weight gain [1, 17] | Absolute organ weights: Kidney [2] [g] | Cholesterol, HDL [3] | Cholesterol, Plasma [3] | Cholesterol, VLDL + LDL [3] | Triacylglycerols, Plasma [3] | Triacylglycerols, VLDL + LDL [3] | Glucose in plasma [4] | NEFA in plasma [5] | Leptin in plasma [6] | Adiponectin in plasma [7] [ng/mL] | also measured
1 | O=C(O)c1cccnc1 [niacin, pyridine-3-carboxylic acid, reference compound] | 4.95 ± 0.73 ^a g | 26.2 ± 2.3 ^ab g/d | 500 ± 43 ^a g | 141 ± 19 ^a g | 2.57 ± 0.49 | 4.54 ± 0.54 ^a mmol/L | 6.91 ± 1.13 ^b mmol/L | 2.70 ± 0.27 ^c mmol/L | 3.17 ± 0.40 ^d mmol/L | 2.08 ± 0.40 ^c mmol/L | 7.36 ± 0.64 ^b mmol/L | 2.25 ± 0.46 ^b mmol/L | 6.17 ± 0.71 ^b ng/mL | 134 ± 21 | Daily feed intake compared with the obese control group [1, 18]: did not differ; Lowering of cholesterol in plasma and VLDL/LDL ([3]; conclusions, obese diabetic rats, in words): significant effect on lowering; TAG concentration in plasma compared with the niacin+DHA+carnitine group [3, 19]: lower; TAG concentrations in plasma compared with the control group [3, 19]: lower; Cholesterol in the VLDL+LDL fraction compared with the obese control group [3, 18]: lower; TAG concentration in the VLDL+LDL fraction compared with the obese control group [3, 18]: lower; Fasting glucose concentration compared with the obese control group [4, 18]: lower; NEFA concentrations in plasma compared with the obese control group [5, 19]: lower; Leptin concentrations in plasma compared with the obese control group [6, 18]: higher
2 | CC/C=C\C/C=C\C/C=C\C/C=C\C/C=C\C/C=C\CCC(=O)O [DHA, docosahexaenoic acid] | 5.14 ± 0.60 ^a g | 25.7 ± 2.9 ^ab g/d | 505 ± 34 ^a g | 146 ± 17 ^a g | 2.59 ± 0.38 | 4.51 ± 0.45 ^a mmol/L | 8.30 ± 1.00 ^a mmol/L | 3.62 ± 0.53 ^a mmol/L | 4.73 ± 0.98 ^bc mmol/L | 2.81 ± 0.52 ^b mmol/L | 7.99 ± 0.77 ^ab mmol/L | 2.42 ± 0.53 ^b mmol/L | 7.27 ± 1.09 ^a ng/mL | 120 ± 22 | Feed conversion ratio [1, 17]: 5.01 ± 0.28 ^c g/g; Absolute organ weights: Heart [2]: 1.36 ± 0.13 g; Absolute organ weights: Liver [2]: 24.7 ± 3.7 ^a g; Relative organ weights: Heart [2]: 2.70 ± 0.21 ^b mg/g body weight; Relative organ weights: Kidney [2]: 5.16 ± 0.91 mg/g body weight; Relative organ weights: Liver [2]: 48.6 ± 4.9 ^a mg/g body weight; Relative mRNA concentration, SREBP-1c [8]: 0.81 ± 0.32 ^ab; Relative mRNA concentration, FAS [9]: 0.71 ± 0.55 ^ab; Relative mRNA concentration, SCD [10]: 1.01 ± 0.45 ^a; Relative mRNA concentration, FABP [11]: 0.99 ± 0.19 ^a; Relative mRNA concentration, FATP [12]: 1.07 ± 0.90; Relative mRNA concentration, CD36 [13]: 0.91 ± 0.38 ^a; Relative mRNA concentration, LPL [14]: 1.26 ± 0.36; Relative mRNA concentration, ACO [15]: 1.27 ± 0.35; Relative mRNA concentration, L-CPT I [16]: 1.31 ± 0.69
